Experimental data taken from the CheMixHub viscosity set.
± gives the uncertainty stated by the source.

Assay: xn = mol fraction of the nth substance listed

Nc1ccccc1Cl + Cc1ccc(Cl)cc1
viscosity [mPa·s], 101 kPa
Conditions	x1 = 0.1012	x1 = 0.2102	x1 = 0.3125	x1 = 0.4056	x1 = 0.5142	x1 = 0.6125	x1 = 0.6952	x1 = 0.7859	x1 = 0.8859
303.15 K	0.9617 ± 0.024	1.175 ± 0.029	1.405 ± 0.034	1.644 ± 0.039	1.963 ± 0.046	2.287 ± 0.053	2.586 ± 0.059	2.936 ± 0.067	3.344 ± 0.076
308.15 K	0.8921 ± 0.023	1.097 ± 0.027	1.318 ± 0.032	1.543 ± 0.037	1.833 ± 0.043	2.12 ± 0.049	2.377 ± 0.055	2.674 ± 0.061	3.014 ± 0.069
313.15 K	0.8377 ± 0.022	1.031 ± 0.026	1.238 ± 0.03	1.446 ± 0.034	1.711 ± 0.04	1.968 ± 0.046	2.195 ± 0.051	2.451 ± 0.056	2.737 ± 0.063
318.15 K	0.7836 ± 0.021	0.9716 ± 0.024	1.17 ± 0.029	1.368 ± 0.033	1.616 ± 0.038	1.852 ± 0.043	2.054 ± 0.048	2.275 ± 0.053	2.511 ± 0.058

O=S1(=O)CCCC1 + Cc1cccc(C)c1
viscosity [mPa·s], 101.3 kPa
Conditions	x2 = 0.1117	x2 = 0.2206	x2 = 0.3267	x2 = 0.4301	x2 = 0.531	x2 = 0.6294	x2 = 0.7254	x2 = 0.8191	x2 = 0.9106
303.15 K	6.231 ± 0.13	4.214 ± 0.095	2.961 ± 0.068	2.171 ± 0.051	1.65 ± 0.039	1.275 ± 0.031	1.007 ± 0.025	0.7887 ± 0.02	0.6551 ± 0.017
323.15 K	4.014 ± 0.09	2.798 ± 0.064	2.042 ± 0.048	1.543 ± 0.037	1.204 ± 0.029	0.9507 ± 0.024	0.7638 ± 0.02	0.6203 ± 0.017	0.5221 ± 0.015

Nc1ccccc1Cl + Cc1cccc(Cl)c1
viscosity [mPa·s], 101 kPa
Conditions	x1 = 0.1012	x1 = 0.2056	x1 = 0.3125	x1 = 0.4056	x1 = 0.5026	x1 = 0.6025	x1 = 0.7145	x1 = 0.818	x1 = 0.91
303.15 K	0.9087 ± 0.023	1.109 ± 0.027	1.348 ± 0.032	1.587 ± 0.038	1.867 ± 0.044	2.19 ± 0.051	2.595 ± 0.06	3.009 ± 0.069	3.408 ± 0.077
308.15 K	0.8581 ± 0.022	1.047 ± 0.026	1.269 ± 0.031	1.489 ± 0.036	1.743 ± 0.041	2.032 ± 0.047	2.386 ± 0.055	2.74 ± 0.063	3.073 ± 0.07
313.15 K	0.812 ± 0.022	0.99 ± 0.025	1.199 ± 0.029	1.402 ± 0.034	1.634 ± 0.039	1.893 ± 0.044	2.205 ± 0.051	2.507 ± 0.058	2.786 ± 0.064
318.15 K	0.7685 ± 0.021	0.9398 ± 0.024	1.138 ± 0.028	1.329 ± 0.032	1.544 ± 0.037	1.78 ± 0.042	2.056 ± 0.048	2.316 ± 0.053	2.545 ± 0.059

Cc1ccc(O)cc1 + Cc1cccc(O)c1
Conditions	viscosity [mPa·s]
298.15 K, 101 kPa, x2 = 0.1388	14.5 ± 0.23
298.15 K, 101 kPa, x2 = 0.2461	14.32 ± 0.23
298.15 K, 101 kPa, x2 = 0.3003	14.25 ± 0.23
298.15 K, 101 kPa, x2 = 0.452	14 ± 0.22
298.15 K, 101 kPa, x2 = 0.4823	13.93 ± 0.22
298.15 K, 101 kPa, x2 = 0.5521	13.85 ± 0.22
298.15 K, 101 kPa, x2 = 0.6238	13.73 ± 0.22
298.15 K, 101 kPa, x2 = 0.6733	13.69 ± 0.22
298.15 K, 101 kPa, x2 = 0.7071	13.61 ± 0.21
298.15 K, 101 kPa, x2 = 0.7373	13.6 ± 0.21
298.15 K, 101 kPa, x2 = 0.8267	13.52 ± 0.21
298.15 K, 101 kPa, x2 = 0.9135	13.46 ± 0.21
313.15 K, 101.3 kPa, x2 = 0.1	6.798 ± 0.13
313.15 K, 101.3 kPa, x2 = 0.2	6.861 ± 0.092
313.15 K, 101.3 kPa, x2 = 0.3	6.878 ± 0.083
313.15 K, 101.3 kPa, x2 = 0.4	6.855 ± 0.1
313.15 K, 101.3 kPa, x2 = 0.5	6.75 ± 0.14
313.15 K, 101.3 kPa, x2 = 0.6	6.625 ± 0.13
313.15 K, 101.3 kPa, x2 = 0.7	6.547 ± 0.13
313.15 K, 101.3 kPa, x2 = 0.8	6.409 ± 0.14
313.15 K, 101.3 kPa, x2 = 0.9	6.321 ± 0.11
323.15 K, 101.3 kPa, x2 = 0.1	4.564 ± 0.1
323.15 K, 101.3 kPa, x2 = 0.2	4.653 ± 0.073
323.15 K, 101.3 kPa, x2 = 0.3	4.653 ± 0.06
323.15 K, 101.3 kPa, x2 = 0.4	4.618 ± 0.08
323.15 K, 101.3 kPa, x2 = 0.5	4.54 ± 0.11
323.15 K, 101.3 kPa, x2 = 0.6	4.439 ± 0.12
323.15 K, 101.3 kPa, x2 = 0.7	4.337 ± 0.11
323.15 K, 101.3 kPa, x2 = 0.8	4.246 ± 0.096
323.15 K, 101.3 kPa, x2 = 0.9	4.175 ± 0.085

CC(O)CC(C)(C)O (configuration not stated) + Cc1ccccc1
viscosity [mPa·s], 101 kPa
Conditions	x1 = 0.1346	x1 = 0.1954	x1 = 0.2938	x1 = 0.3816	x1 = 0.4929	x1 = 0.5952	x1 = 0.6969	x1 = 0.7998	x1 = 0.8958
308.15 K	0.6243 ± 0.063	0.7011 ± 0.07	0.8906 ± 0.089	1.182 ± 0.12	1.708 ± 0.17	2.106 ± 0.21	3.293 ± 0.33	5.905 ± 0.59	9.863 ± 0.99
318.15 K	0.4797 ± 0.048	0.5572 ± 0.056	0.739 ± 0.074	0.983 ± 0.098	1.41 ± 0.14	1.753 ± 0.18	2.719 ± 0.27	4.872 ± 0.49	8.571 ± 0.86

Cc1ccc(O)cc1 + Cc1ccccc1
308.15 K, 101 kPa
Conditions	viscosity [mPa·s]
x1 = 0.0324	0.5202 ± 0.0047
x1 = 0.0983	0.5823 ± 0.0051
x1 = 0.2079	0.7295 ± 0.0062
x1 = 0.305	0.9088 ± 0.0075
x1 = 0.417	1.201 ± 0.0097
x1 = 0.58	1.867 ± 0.015
x1 = 0.6813	2.636 ± 0.02
x1 = 0.7299	3.2 ± 0.024
x1 = 0.8385	4.646 ± 0.035
x1 = 0.8532	5.08 ± 0.037
x1 = 0.9349	6.873 ± 0.047

O=S(=O)(Cl)Cl + Cc1ccccc1
298.15 K, 101 kPa
Conditions	viscosity [mPa·s]
x1 = 0.207	0.5841 ± 0.015
x1 = 0.373	0.6144 ± 0.016
x1 = 0.572	0.6457 ± 0.017
x1 = 0.713	0.6642 ± 0.017
x1 = 0.826	0.6759 ± 0.017

O=S1(=O)CCCC1 + Cc1ccccc1
viscosity [mPa·s], 101.3 kPa
Conditions	x2 = 0.1267	x2 = 0.2458	x2 = 0.3587	x2 = 0.4651	x2 = 0.5662	x2 = 0.6617	x2 = 0.7527	x2 = 0.8392	x2 = 0.9206
303.15 K	6.052 ± 0.13	3.95 ± 0.089	2.732 ± 0.063	2.029 ± 0.047	1.557 ± 0.037	1.173 ± 0.029	0.9289 ± 0.023	0.7548 ± 0.02	0.6265 ± 0.017
323.15 K	3.906 ± 0.088	2.662 ± 0.061	1.919 ± 0.045	1.458 ± 0.035	1.151 ± 0.028	0.8828 ± 0.022	0.7151 ± 0.019	0.5893 ± 0.016	0.4967 ± 0.014
